Experiment [1] concerns ragweed. Put plainly: Test A postemergence. The experiment is classed as in vivo, Ambrosia artemisiifolia. Conditions: 1000 g ai/ha, Postemergence; 0 to 100 scale. Summed up: (§1)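 Greenhouse pot test, 10 days. Compound (non-phytotoxic solvent, surfactant) sprayed on soil at seeding or on seedlings at one- to two-leaf stage. Visual injury rated 0–100 against untreated plants.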

Experiment [2] concerns Pigweed, Redroot. Put plainly: Test A postemergence. The format is in vivo, Amaranthus retroflexus. The settings on record: 1000 g ai/ha, Postemergence; 0 to 100 scale. The text has this: (§2) Seeds of plant species selected from barnyardgrass (Echinochloa crusgalli), blackgrass (Alopecurus myosuroides), corn (Zea mays), foxtail, giant (giant foxtail, Setaria faberi), goosegrass (Eleusine indica), kochia (Bassia scoparia), oat, wild (wild oat, Avena fatua), pigweed, palmer (palmer amaranth, palmer pigweed, Amaranthus palmeri), Pigweed, Redroot (redroot pigweed, Amaranthus retroflexus), ragweed (common ragweed, Ambrosia artemisiifolia), ryegrass, Italian (italian ryegrass, Lolium multiflorum), soybean (Glycine max), and wheat (Triticum aestivum) were planted into a blend of loam soil and sand and treated preemergence with a directed soil spray using test chemicals formulated in a non-phytotoxic solvent mixture which included a surfactant. At the same time, plants selected from these crops and weed species and also galium (catchweed bedstraw, Galium aparine) and horseweed (Erigeron canadensis) were planted in pots containing the same blend of loam soil and sand and treated with postemergence applications of test chemicals formulated in the same manner. Plants ranged in height from 2 to 10 cm and were in the one- to two-leaf stage for the postemergence treatment. Treated plants and untreated controls were maintained in a greenhouse for 10 days, after which time all treated plants were compared to untreated controls and visually evaluated for injury. Plant response ratings, summarized in Table A, are based on a 0 to 100 scale where 0 is no effect and 100 is complete control. A dash (-) response means no test result.

In experiment [3] the test system is foxtail, giant. Description: Test A postemergence. The experiment is classed as in vivo, Setaria faberi. The settings on record: 1000 g ai/ha, Postemergence; 0 to 100 scale. Summed up:
as §1

Experiment [4] concerns kochia. Put plainly: Test A preemergence. Conditions: 1000 g ai/ha, 0 to 100 scale (0 no effect, 100 complete control), 10 days. The experiment is classed as in vivo, Bassia scoparia. Summed up: as §1
Experiment [5] relates to foxtail, giant. Description: Test A preemergence. The experiment is classed as in vivo, Setaria faberi. Conditions: 1000 g ai/ha, 0 to 100 scale (0 no effect, 100 complete control), 10 days. The method, boiled down: as §1
The subject of the next experiment is wheat. Description: Test A postemergence. The format is in vivo, Triticum aestivum. The settings on record: 1000 g ai/ha, Postemergence; 0 to 100 scale. The method, boiled down:
as §1

The next experiment concerns corn. Put plainly: Test A postemergence. The experiment is classed as in vivo, Zea mays. The settings on record: 1000 g ai/ha, Postemergence; 0 to 100 scale. The method, boiled down: as §1
Experiment [6] concerns ryegrass, Italian. Description: Test A preemergence. The format is in vivo, Lolium multiflorum. Conditions: 1000 g ai/ha, 0 to 100 scale (0 no effect, 100 complete control), 10 days. Summed up:
as §1

Experiment [7] relates to barnyardgrass. Put plainly: Test A preemergence. The experiment is classed as in vivo, Echinochloa crusgalli. The settings on record: 1000 g ai/ha, 0 to 100 scale (0 no effect, 100 complete control), 10 days. The method, boiled down:
as §1

Experiment [8] concerns barnyardgrass. Description: Test A postemergence. The experiment is classed as in vivo, Echinochloa crusgalli. The settings on record: 1000 g ai/ha, Postemergence; 0 to 100 scale. The method, boiled down: as §1
For experiment [9], the system named is Pigweed, Redroot. Put plainly: Test A preemergence. The experiment is classed as in vivo, Amaranthus retroflexus. Conditions: 1000 g ai/ha, 0 to 100 scale (0 no effect, 100 complete control), 10 days.
Excerpt: as §2

Experiment [10] concerns kochia. Description: Test A postemergence. The format is in vivo, Bassia scoparia. The settings on record: 1000 g ai/ha, Postemergence; 0 to 100 scale. The method, boiled down:
as §1

The subject of experiment [11] is ryegrass, Italian. Description: Test A postemergence. Conditions: 1000 g ai/ha, Postemergence; 0 to 100 scale. The format is in vivo, Lolium multiflorum. Summed up: as §1
Experiment [12] deals with ragweed. Description: Test A preemergence. The experiment is classed as in vivo, Ambrosia artemisiifolia. The settings on record: 1000 g ai/ha, 0 to 100 scale (0 no effect, 100 complete control), 10 days. The method, boiled down:
as §1

The subject of another experiment is blackgrass. Description: Test A postemergence. The settings on record: 1000 g ai/ha, Postemergence; 0 to 100 scale. The experiment is classed as in vivo, Alopecurus myosuroides. Summed up: as §1
A further experiment has as its system galium. Put plainly: Test A postemergence. The format is in vivo, Galium aparine. The settings on record: 1000 g ai/ha, Postemergence; 0 to 100 scale. Summed up:
as §1

Experimental findings from patent US20260262643A1, “HERBICIDAL BENZOXAZINES” (FMC CORPORATION, priority 2022, published 2026) are described below.

For the molecule `C=Cc1cccc2c1OC(C)CN2C(=O)c1cccc(-n2cncn2)c1` (stereo not shown) [Compound 26], the “Plant response rating, Ragweed” value with ragweed [1] and in the experiment with ragweed [12] was 0 each time. For the same molecule, the “Plant response rating, Pigweed, Redroot” value in the experiment with Pigweed, Redroot [2] was found to be 0; in the experiment on Pigweed, Redroot [9], 0. Besides, the “Plant response rating, Foxtail, Giant” value in the experiment on foxtail, giant [3] turned out to be 0; with foxtail, giant [5], 0. For the same molecule, the “Plant response rating, Kochia” value with kochia [4] and with kochia [10] was 0 each time. Moreover, in the experiment on wheat, the “Plant response rating, Wheat” value was 0. The “Plant response rating, Corn” value with corn worked out at 0. Also, the “Plant response rating, Ryegrass, Italian” value in the experiment with ryegrass, Italian [6] is recorded as 0; in the experiment with ryegrass, Italian [11], 0. In addition, the “Plant response rating, Barnyardgrass” value in the experiment on barnyardgrass [7] and in the experiment with barnyardgrass [8] was 0 in each case. In addition, the “Plant response rating, Blackgrass” value in the experiment with blackgrass was found to be 0.

Take `C[C@H]1CN(C(=O)c2cccc(-n3cnnc3)c2)c2cccc(Cl)c2O1` [Compound 128]: the “Plant response rating, Ragweed” value is given as 30 in the experiment on ragweed [1] and 0 in the experiment on ragweed [12]. Also, the “Plant response rating, Pigweed, Redroot” value turned out to be 0 in the experiment with Pigweed, Redroot [2] and 0 with Pigweed, Redroot [9]. In addition, the “Plant response rating, Foxtail, Giant” value with foxtail, giant [3] was 20; in the experiment on foxtail, giant [5], 50. Also, the “Plant response rating, Kochia” value with kochia [4] was determined as 40; in the experiment with kochia [10], 0. Moreover, the “Plant response rating, Wheat” value with wheat is 0. Further, the “Plant response rating, Corn” value in the experiment with corn was determined as 0. Besides, the “Plant response rating, Galium” value with galium turned out to be 30. Moreover, the “Plant response rating, Ryegrass, Italian” value came to 60 in the experiment on ryegrass, Italian [6] and 0 with ryegrass, Italian [11]. The “Plant response rating, Barnyardgrass” value in the experiment with barnyardgrass [7] was determined as 0; in the experiment with barnyardgrass [8], 30. The “Plant response rating, Blackgrass” value in the experiment on blackgrass is reported as 30.

Turning to `CC1CN(C(=O)c2cccc(-n3cncn3)c2)c2ccc(F)cc2O1` (stereo not shown) [Compound 23], the “Plant response rating, Ragweed” value with ragweed [1] was found to be 20; with ragweed [12], 0. Moreover, the “Plant response rating, Pigweed, Redroot” value in the experiment on Pigweed, Redroot [2] came out at 0; in the experiment with Pigweed, Redroot [9], 0. Also, the “Plant response rating, Foxtail, Giant” value in the experiment with foxtail, giant [3] worked out at 10; with foxtail, giant [5] it was 50. The “Plant response rating, Kochia” value in the experiment with kochia [4] is 0; in the experiment with kochia [10] it was 10. For the same molecule, the “Plant response rating, Wheat” value in the experiment with wheat came out at 20. For the same molecule, in the experiment with corn, the “Plant response rating, Corn” value amounted to 30. Besides, the “Plant response rating, Ryegrass, Italian” value with ryegrass, Italian [6] was 30; in the experiment on ryegrass, Italian [11], 0. For the same molecule, the “Plant response rating, Barnyardgrass” value is given as 30 in the experiment with barnyardgrass [7] and 10 in the experiment on barnyardgrass [8]. The “Plant response rating, Blackgrass” value in the experiment on blackgrass is recorded as 30.

Turning to `CC1CN(C(=O)c2cccc(-n3cncn3)c2)c2cc(F)ccc2O1` (stereo not shown) [Compound 24], the “Plant response rating, Ragweed” value in the experiment with ragweed [1] and in the experiment on ragweed [12] was 0 in each case. In addition, the “Plant response rating, Pigweed, Redroot” value turned out to be 0 in the experiment with Pigweed, Redroot [2] and 0 in the experiment on Pigweed, Redroot [9]. The “Plant response rating, Foxtail, Giant” value is reported as 50 in the experiment with foxtail, giant [3] and 30 in the experiment on foxtail, giant [5]. Moreover, the “Plant response rating, Kochia” value with kochia [4] turned out to be 0; in the experiment on kochia [10], 10. Moreover, in the experiment with wheat, the “Plant response rating, Wheat” value stood at 30. Moreover, the “Plant response rating, Corn” value in the experiment with corn was determined as 10. The “Plant response rating, Ryegrass, Italian” value in the experiment on ryegrass, Italian [6] came out at 100; with ryegrass, Italian [11], 60. The entries for the “Plant response rating, Barnyardgrass” value in the experiment on barnyardgrass [7] and in the experiment with barnyardgrass [8] were 50 and 30, respectively. For the same molecule, in the experiment on blackgrass, the “Plant response rating, Blackgrass” value was determined as 60.

As to `C[C@H]1CN(C(=O)c2cccc(-n3cccn3)c2)c2cccc(Cl)c2O1` [Compound 129], the “Plant response rating, Ragweed” value in the experiment on ragweed [1] and in the experiment on ragweed [12] was 0 in each case. In addition, the “Plant response rating, Pigweed, Redroot” value is 70 with Pigweed, Redroot [2] and 20 in the experiment with Pigweed, Redroot [9]. In addition, the “Plant response rating, Foxtail, Giant” value turned out to be 10 in the experiment on foxtail, giant [3] and 0 with foxtail, giant [5]. Besides, the “Plant response rating, Kochia” value in the experiment with kochia [4] is recorded as 20; in the experiment on kochia [10], 10. In addition, the “Plant response rating, Wheat” value in the experiment with wheat was 0. For the same molecule, in the experiment on corn, the “Plant response rating, Corn” value turned out to be 0. In addition, the “Plant response rating, Galium” value in the experiment with galium is reported as 30. Moreover, the “Plant response rating, Ryegrass, Italian” value is recorded as 50 with ryegrass, Italian [6] and 0 in the experiment with ryegrass, Italian [11]. In addition, the “Plant response rating, Barnyardgrass” value in the experiment on barnyardgrass [7] and in the experiment on barnyardgrass [8] was 20 each time. Also, the “Plant response rating, Blackgrass” value in the experiment with blackgrass is 30.

`CCC1CN(C(=O)c2ccnc(-n3cncn3)c2)c2cccc(I)c2O1` (stereo not shown) [Compound 17]: the “Plant response rating, Ragweed” value in the experiment on ragweed [1] and in the experiment with ragweed [12] was 0 each time. For the same molecule, the “Plant response rating, Pigweed, Redroot” value with Pigweed, Redroot [2] was determined as 0; in the experiment with Pigweed, Redroot [9] it was 100. Further, the “Plant response rating, Foxtail, Giant” value came out at 0 with foxtail, giant [3] and 0 in the experiment on foxtail, giant [5]. Also, the “Plant response rating, Kochia” value turned out to be 30 with kochia [4] and 10 with kochia [10]. For the same molecule, in the experiment on wheat, the “Plant response rating, Wheat” value amounted to 0. The “Plant response rating, Corn” value in the experiment on corn is 0. Moreover, in the experiment on galium, the “Plant response rating, Galium” value is 0. The “Plant response rating, Ryegrass, Italian” value with ryegrass, Italian [6] was found to be 0; in the experiment with ryegrass, Italian [11] it was 0. Also, the “Plant response rating, Barnyardgrass” value in the experiment with barnyardgrass [7] and with barnyardgrass [8] was 0 throughout. Further, the “Plant response rating, Blackgrass” value in the experiment with blackgrass is 0.

In the case of `C[C@H]1CN(C(=O)c2cccc(-c3ccncc3)c2)c2cccc(Cl)c2O1` [Compound 123], the results for the “Plant response rating, Ragweed” value in the experiment with ragweed [1] and with ragweed [12] were 0 and 30, respectively. Further, the “Plant response rating, Pigweed, Redroot” value in the experiment with Pigweed, Redroot [2] is 60; in the experiment with Pigweed, Redroot [9] it was 30. In addition, the “Plant response rating, Foxtail, Giant” value in the experiment on foxtail, giant [3] was determined as 10; in the experiment on foxtail, giant [5], 0. Moreover, the “Plant response rating, Kochia” value was found to be 30 in the experiment on kochia [4] and 20 with kochia [10]. Also, in the experiment on wheat, the “Plant response rating, Wheat” value was 0. Besides, the “Plant response rating, Corn” value in the experiment with corn is 0. The “Plant response rating, Galium” value in the experiment with galium came out at 50. Moreover, the “Plant response rating, Ryegrass, Italian” value in the experiment with ryegrass, Italian [6] stood at 30; in the experiment on ryegrass, Italian [11], 30. For the same molecule, the “Plant response rating, Barnyardgrass” value with barnyardgrass [7] amounted to 40; with barnyardgrass [8] it was 20. The “Plant response rating, Blackgrass” value with blackgrass is recorded as 20.

In the case of `CC1CN(C(=O)c2cccc(-n3cncn3)c2)c2ccccc2O1` (stereo not shown) [Compound 31], the “Plant response rating, Ragweed” value in the experiment on ragweed [1] is on record as 0; with ragweed [12], 20. Moreover, the “Plant response rating, Pigweed, Redroot” value in the experiment with Pigweed, Redroot [2] was found to be 0; with Pigweed, Redroot [9] it was 0. The “Plant response rating, Foxtail, Giant” value in the experiment on foxtail, giant [3] turned out to be 80; in the experiment with foxtail, giant [5], 100. Further, the “Plant response rating, Kochia” value in the experiment on kochia [4] was found to be 30; with kochia [10] it was 20. Further, the “Plant response rating, Wheat” value with wheat is 40. Also, the “Plant response rating, Corn” value with corn stood at 30. The “Plant response rating, Ryegrass, Italian” value is given as 90 with ryegrass, Italian [6] and 70 in the experiment on ryegrass, Italian [11]. Moreover, the “Plant response rating, Barnyardgrass” value was 80 in the experiment with barnyardgrass [7] and 30 with barnyardgrass [8]. Further, in the experiment on blackgrass, the “Plant response rating, Blackgrass” value came out at 50.
